Experimental findings from patent publication US12723063B2, “GIPR-agonist compounds” (Eli Lilly and Company, priority 2019, dated 2026) are described below.

One assay concerns the target T1, human GcgR (Homo sapiens, UniProt P47871).
T1 construct: expressed in transfected cells; crude membranes
The assay can be described thus: [125I]-Glucagon binding, SPA with WGA beads, 0.1% bacitracin. Conditions: geometric mean, read-out: hGcgR Ki. The essentials:
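SPA competition binding with WGA beads on crude membranes from HEK293 cells stably expressing hGcgR. Buffer: 25 mM HEPES pH 7.4, 2.5 mM CaCl2, 1 mM MgCl2, 0.1% bacitracin, 0.003% Tween-20; 10-point 3-fold dilutions, NSB with 1 μM Gcg.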

In a further assay the target is T2, human GIPR (Homo sapiens, UniProt P48546).
T2 construct: expressed in transfected cells; crude membranes
T2 sequence (P48546 22-466): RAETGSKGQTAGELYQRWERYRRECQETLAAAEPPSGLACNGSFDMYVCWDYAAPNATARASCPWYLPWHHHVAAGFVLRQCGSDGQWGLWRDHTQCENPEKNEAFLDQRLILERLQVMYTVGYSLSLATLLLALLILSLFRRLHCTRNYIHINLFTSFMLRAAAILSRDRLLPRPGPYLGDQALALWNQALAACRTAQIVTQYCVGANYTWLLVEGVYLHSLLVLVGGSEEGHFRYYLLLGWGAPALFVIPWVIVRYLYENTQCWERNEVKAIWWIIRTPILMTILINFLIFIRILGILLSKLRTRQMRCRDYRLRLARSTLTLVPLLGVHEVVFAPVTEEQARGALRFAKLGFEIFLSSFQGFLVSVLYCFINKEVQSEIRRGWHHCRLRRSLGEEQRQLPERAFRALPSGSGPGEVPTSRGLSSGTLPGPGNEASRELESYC
Put plainly: [125I]-GIP binding, SPA with WGA beads, 0.1% bacitracin. Conditions: geometric mean, read-out: hGIPR Ki. The essentials:
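Ki values are geometric means (SEM, n independent days), derived from four-parameter nonlinear regression of IC50. Membranes came from hGIPR-expressing CHO cells.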

Molecules are shown by their SMILES. *1 amine or outer side, *2 acyl side, *3 side chain or, on linkers, in order; H or OH if unused. Where a SMILES comes first, the peptide text is derived from it. Side-chain parts run from the residue outwards. [ ]: non-standard residue; d: D form. The star is where a group is joined. C20 diacid = O=C(O)CCCCCCCCCCCCCCCCCCC(=O)*; C18 diacid = O=C(O)CCCCCCCCCCCCCCCCC(=O)*; γGlu = O=C(O)[C@H](CCC(=O)[*:2])N[*:1]; αMeL = CC(C)C[C@](C)(N)C(=O)O; Orn = NCCC[C@H](N)C(=O)O; AEEA = NCCOCCOCC(=O)O; Aib = CC(C)(N)C(=O)O

The term Ki denotes the equilibrium dissociation constant of an inhibitor or competing ligand from its target.

T1 sequence (P47871 26-477): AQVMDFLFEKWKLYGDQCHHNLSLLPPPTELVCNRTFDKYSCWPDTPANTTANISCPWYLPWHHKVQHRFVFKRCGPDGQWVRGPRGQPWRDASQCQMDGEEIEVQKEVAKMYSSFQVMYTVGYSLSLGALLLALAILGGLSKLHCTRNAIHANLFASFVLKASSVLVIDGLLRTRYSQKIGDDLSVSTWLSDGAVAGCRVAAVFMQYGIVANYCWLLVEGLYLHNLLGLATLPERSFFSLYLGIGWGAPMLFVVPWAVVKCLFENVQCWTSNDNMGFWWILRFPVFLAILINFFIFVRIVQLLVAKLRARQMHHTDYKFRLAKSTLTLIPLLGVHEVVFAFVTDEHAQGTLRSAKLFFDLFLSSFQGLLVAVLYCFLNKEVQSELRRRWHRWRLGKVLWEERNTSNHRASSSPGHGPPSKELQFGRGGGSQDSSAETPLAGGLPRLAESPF

With `CC[C@H](C)[C@H](NC(=O)[C@H](CCCN)NC(=O)[C@H](CC(=O)O)NC(=O)[C@H](CC(C)C)NC(=O)[C@](C)(CC(C)C)NC(=O)[C@@H](NC(=O)[C@H](CO)NC(=O)[C@H](Cc1ccc(O)cc1)NC(=O)[C@H](CC(=O)O)NC(=O)[C@H](CO)NC(=O)[C@@H](NC(=O)[C@H](Cc1ccccc1)NC(=O)[C@@H](NC(=O)CNC(=O)[C@H](CCC(=O)O)NC(=O)C(C)(C)NC(=O)[C@@H](N)Cc1ccc(O)cc1)[C@@H](C)O)[C@@H](C)CC)[C@@H](C)CC)C(=O)N[C@@H](Cc1c[nH]cn1)C(=O)N[C@@H](CCC(N)=O)C(=O)NC(C)(C)C(=O)N[C@@H](CCC(=O)O)C(=O)N[C@@H](Cc1ccccc1)C(=O)N[C@H](C(=O)N[C@H](CCC(=O)O)C(=O)N[C@@H](Cc1ccc(O)cc1)C(=O)N[C@@H](CCCCNC(=O)COCCOCCNC(=O)COCCOCCNC(=O)CC[C@H](NC(=O)CCCCCCCCCCCCCCCCCCC(=O)O)C(=O)O)C(=O)N[C@@H](CC(C)C)C(=O)N[C@@H](CCC(=O)O)C(=O)NCC(=O)NCC(=O)N1CCC[C@H]1C(=O)N[C@@H](CO)C(=O)N[C@@H](CO)C(=O)NCC(=O)N[C@@H](C)C(=O)N1CCC[C@H]1C(=O)N1CCC[C@H]1C(=O)N1CCC[C@H]1C(=O)N[C@@H](CO)C(N)=O)C(C)C` [Example 102] (H-Y[Aib]EGTFISDYSI[αMeL]LD[Orn]IHQ[Aib]EFV[dE]YK([AEEA-AEEA-γGlu-C20 diacid])LEGGPSSGAPPPS-NH2), the figures for the inhibition constant Ki on human GcgR and on human GIPR were over 961000 pM and 164 pM, respectively.

As to `CC[C@H](C)[C@H](NC(=O)[C@H](CCCN)NC(=O)[C@H](CC(=O)O)NC(=O)[C@H](CC(C)C)NC(=O)[C@](C)(CC(C)C)NC(=O)[C@@H](NC(=O)[C@H](CO)NC(=O)[C@H](Cc1ccc(O)cc1)NC(=O)[C@H](CC(=O)O)NC(=O)[C@H](CO)NC(=O)[C@@H](NC(=O)[C@H](Cc1ccccc1)NC(=O)[C@@H](NC(=O)CNC(=O)[C@H](CCC(=O)O)NC(=O)C(C)(C)NC(=O)[C@@H](N)Cc1ccc(O)cc1)[C@@H](C)O)[C@@H](C)CC)[C@@H](C)CC)C(=O)N[C@@H](Cc1c[nH]cn1)C(=O)N[C@@H](CCC(N)=O)C(=O)NC(C)(C)C(=O)N[C@@H](CC(=O)O)C(=O)N[C@@H](Cc1ccccc1)C(=O)N[C@H](C(=O)N[C@@H](CCC(=O)O)C(=O)N[C@@H](Cc1ccc(O)cc1)C(=O)N[C@@H](CCCCNC(=O)COCCOCCNC(=O)COCCOCCNC(=O)CC[C@H](NC(=O)CCCCCCCCCCCCCCCCC(=O)O)C(=O)O)C(=O)N[C@@H](CC(C)C)C(=O)N[C@@H](CCC(=O)O)C(=O)NCC(=O)NCC(=O)N1CCC[C@H]1C(=O)N[C@@H](CO)C(=O)N[C@@H](CO)C(=O)NCC(=O)N[C@@H](C)C(=O)N1CCC[C@H]1C(=O)N1CCC[C@H]1C(=O)N1CCC[C@H]1C(=O)N[C@@H](CO)C(N)=O)C(C)C` [Example 103] (H-Y[Aib]EGTFISDYSI[αMeL]LD[Orn]IHQ[Aib]DFVEYK([AEEA-AEEA-γGlu-C18 diacid])LEGGPSSGAPPPS-NH2), the inhibitory constant (Ki) at human GcgR was over 960000 pM; at human GIPR, 40.5 pM.

For `CC[C@H](C)[C@H](NC(=O)[C@H](CCCN)NC(=O)[C@H](CC(=O)O)NC(=O)[C@H](CC(C)C)NC(=O)[C@](C)(CC(C)C)NC(=O)[C@@H](NC(=O)[C@H](CO)NC(=O)[C@H](Cc1ccc(O)cc1)NC(=O)[C@H](CC(=O)O)NC(=O)[C@H](CO)NC(=O)[C@@H](NC(=O)[C@H](Cc1ccccc1)NC(=O)[C@@H](NC(=O)CNC(=O)[C@H](CCC(=O)O)NC(=O)C(C)(C)NC(=O)[C@@H](N)Cc1ccc(O)cc1)[C@@H](C)O)[C@@H](C)CC)[C@@H](C)CC)C(=O)N[C@@H](Cc1c[nH]cn1)C(=O)N[C@@H](CCC(N)=O)C(=O)NC(C)(C)C(=O)N[C@@H](CCC(=O)O)C(=O)N[C@@H](Cc1ccccc1)C(=O)N[C@H](C(=O)N[C@@H](CCC(=O)O)C(=O)N[C@@H](Cc1ccc(O)cc1)C(=O)N[C@@H](CCCCNC(=O)COCCOCCNC(=O)COCCOCCNC(=O)CC[C@H](NC(=O)CCCCCCCCCCCCCCCCCCC(=O)O)C(=O)O)C(=O)N[C@@H](CC(C)C)C(=O)N[C@@H](CCC(=O)O)C(=O)N[C@@H](C)C(=O)NCC(=O)N1CCC[C@H]1C(=O)N[C@@H](CO)C(=O)N[C@@H](CO)C(=O)NCC(=O)N[C@@H](C)C(=O)N1CCC[C@H]1C(=O)N1CCC[C@H]1C(=O)N1CCC[C@H]1C(=O)N[C@@H](CO)C(N)=O)C(C)C` [Example 104] (H-Y[Aib]EGTFISDYSI[αMeL]LD[Orn]IHQ[Aib]EFVEYK([AEEA-AEEA-γGlu-C20 diacid])LEAGPSSGAPPPS-NH2), the inhibition constant (Ki) was over 960000 pM at human GcgR and 134 pM at human GIPR.

With `CC[C@H](C)[C@H](NC(=O)[C@H](CCCN)NC(=O)[C@H](CC(=O)O)NC(=O)[C@H](CC(C)C)NC(=O)[C@](C)(CC(C)C)NC(=O)[C@@H](NC(=O)[C@H](CO)NC(=O)[C@H](Cc1ccc(O)cc1)NC(=O)[C@H](CC(=O)O)NC(=O)[C@H](CO)NC(=O)[C@@H](NC(=O)[C@H](Cc1ccccc1)NC(=O)[C@@H](NC(=O)CNC(=O)[C@H](CCC(=O)O)NC(=O)C(C)(C)NC(=O)[C@@H](N)Cc1ccc(O)cc1)[C@@H](C)O)[C@@H](C)CC)[C@@H](C)CC)C(=O)N[C@@H](Cc1c[nH]cn1)C(=O)N[C@@H](CCC(N)=O)C(=O)NC(C)(C)C(=O)N[C@@H](CCC(=O)O)C(=O)N[C@@H](Cc1ccccc1)C(=O)N[C@H](C(=O)N[C@@H](CCC(=O)O)C(=O)N[C@@H](Cc1ccc(O)cc1)C(=O)N[C@@H](CCCCNC(=O)COCCOCCNC(=O)COCCOCCNC(=O)CC[C@H](NC(=O)CCCCCCCCCCCCCCCCCCC(=O)O)C(=O)O)C(=O)N[C@@H](CC(C)C)C(=O)N[C@@H](CCC(=O)O)C(=O)N[C@H](C(=O)NCC(=O)N1CCC[C@H]1C(=O)N[C@@H](CO)C(=O)N[C@@H](CO)C(=O)NCC(=O)N[C@@H](C)C(=O)N1CCC[C@H]1C(=O)N1CCC[C@H]1C(=O)N1CCC[C@H]1C(=O)N[C@@H](CO)C(N)=O)[C@@H](C)O)C(C)C` [Example 105] (H-Y[Aib]EGTFISDYSI[αMeL]LD[Orn]IHQ[Aib]EFVEYK([AEEA-AEEA-γGlu-C20 diacid])LETGPSSGAPPPS-NH2), the values for the inhibition constant (Ki) on human GcgR and at human GIPR were over 960000 pM and 174 pM, respectively.

Take `CC[C@H](C)[C@H](NC(=O)[C@H](CCCN)NC(=O)[C@H](CC(=O)O)NC(=O)[C@H](CC(C)C)NC(=O)[C@](C)(CC(C)C)NC(=O)[C@@H](NC(=O)[C@H](CO)NC(=O)[C@H](Cc1ccc(O)cc1)NC(=O)[C@H](CC(=O)O)NC(=O)[C@H](CO)NC(=O)[C@@H](NC(=O)[C@H](Cc1ccccc1)NC(=O)[C@@H](NC(=O)CNC(=O)[C@H](CCC(=O)O)NC(=O)C(C)(C)NC(=O)[C@@H](N)Cc1ccc(O)cc1)[C@@H](C)O)[C@@H](C)CC)[C@@H](C)CC)C(=O)N[C@@H](Cc1c[nH]cn1)C(=O)N[C@@H](CCC(N)=O)C(=O)NC(C)(C)C(=O)N[C@@H](CCC(=O)O)C(=O)N[C@@H](Cc1ccccc1)C(=O)N[C@H](C(=O)N[C@@H](CCC(=O)O)C(=O)N[C@@H](Cc1ccc(O)cc1)C(=O)N[C@@H](CCCCNC(=O)COCCOCCNC(=O)COCCOCCNC(=O)CC[C@H](NC(=O)CCCCCCCCCCCCCCCCCCC(=O)O)C(=O)O)C(=O)N[C@@H](CC(C)C)C(=O)N[C@@H](CCC(=O)O)C(=O)N[C@@H](CCC(N)=O)C(=O)NCC(=O)N1CCC[C@H]1C(=O)N[C@@H](CO)C(=O)N[C@@H](CO)C(=O)NCC(=O)N[C@@H](C)C(=O)N1CCC[C@H]1C(=O)N1CCC[C@H]1C(=O)N1CCC[C@H]1C(=O)N[C@@H](CO)C(N)=O)C(C)C` [Example 106] (H-Y[Aib]EGTFISDYSI[αMeL]LD[Orn]IHQ[Aib]EFVEYK([AEEA-AEEA-γGlu-C20 diacid])LEQGPSSGAPPPS-NH2): the inhibition constant (Ki) came out at 304000 pM at human GcgR and 91.8 pM on human GIPR.

For `CC[C@H](C)[C@H](NC(=O)[C@H](CCCN)NC(=O)[C@H](CC(=O)O)NC(=O)[C@H](CC(C)C)NC(=O)[C@](C)(CC(C)C)NC(=O)[C@@H](NC(=O)[C@H](CO)NC(=O)[C@H](Cc1ccc(O)cc1)NC(=O)[C@H](CC(=O)O)NC(=O)[C@H](CO)NC(=O)[C@@H](NC(=O)[C@H](Cc1ccccc1)NC(=O)[C@@H](NC(=O)CNC(=O)[C@H](CCC(=O)O)NC(=O)C(C)(C)NC(=O)[C@@H](N)Cc1ccc(O)cc1)[C@@H](C)O)[C@@H](C)CC)[C@@H](C)CC)C(=O)N[C@@H](Cc1c[nH]cn1)C(=O)N[C@@H](CCC(N)=O)C(=O)NC(C)(C)C(=O)N[C@@H](CCC(=O)O)C(=O)N[C@@H](Cc1ccccc1)C(=O)N[C@H](C(=O)N[C@@H](CCC(=O)O)C(=O)N[C@@H](Cc1ccc(O)cc1)C(=O)N[C@@H](CCCCNC(=O)COCCOCCNC(=O)COCCOCCNC(=O)CC[C@H](NC(=O)CCCCCCCCCCCCCCCCCCC(=O)O)C(=O)O)C(=O)N[C@@H](CC(C)C)C(=O)N[C@@H](CCC(=O)O)C(=O)NCC(=O)NCC(=O)N1CCC[C@H]1C(=O)N[C@@H](CO)C(=O)N[C@@H](CO)C(=O)NCC(=O)N[C@@H](C)C(=O)N1CCC[C@H]1C(=O)N1CCC[C@H]1C(=O)N1CCC[C@H]1C(=O)N[C@@H](CO)C(N)=O)C(C)C` [Example 107] (H-Y[Aib]EGTFISDYSI[αMeL]LD[Orn]IHQ[Aib]EFVEYK([AEEA-AEEA-γGlu-C20 diacid])LEGGPSSGAPPPS-NH2), the inhibition constant Ki at human GcgR amounted to 347000 pM; at human GIPR, 72.2 pM.
